Common to all, as to type: biochemical
For assay [1], the target named is T1, IAPP fibrils (Homo sapiens, UniProt P10997).
T1 construct: purchased Bachem Inc
T1 sequence (P10997 34-70 limits assumed): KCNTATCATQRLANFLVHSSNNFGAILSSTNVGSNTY
Description: Congo red binding assay with IAPP fibrils. To be noted: 3-day incubation. In a few lines:
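Congo red staining of washed 0.2 μm filters measured the aggregated IAPP retained after a 3-day co-incubation with compound or EDTA. Weight ratios IAPP:compound were 1:1, 1:0.1, 1:0.01 or 1:0.001; loss of color relative to compound-free IAPP was scored.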

Another assay has as its target T2, Aβ 1-42 fibrils (Homo sapiens, UniProt P05067).
T2 construct: purchased Bachem Inc
Briefly: Thioflavin T fluorometry - disruption of pre-formed Aβ 1-42 Alzheimer's fibrils. The following applies: 25 μM pre-fibrillized Aβ 1-42, 37° C., 3 days; for inhibition: read-out: % Inhibition Aβ (result ± S.D.). The method, boiled down: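 Pre-fibrillized Aβ1-42 (25 µM) incubated 3 days at 37 °C alone or with compound at Aβ:compound weight ratios 1:1 to 1:0.001. Remaining fibrils quantified by Thioflavin T fluorescence (ex 444/em 485 nm) in phosphate buffer pH 6.8, blank-subtracted for buffer or compound alone.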

Assay [2] deals with T1, IAPP fibrils. Briefly: Thioflavin T fluorometry - disruption of type 2 diabetes IAPP fibrils. The following applies: 25 μM pre-fibrillized IAPP, 37° C., 3 days; for inhibition: read-out: % Inhibition IAPP (result ± S.D.). In a few lines:
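Pre-fibrillized human IAPP (25 μM) incubated 3 days at 37 °C alone or with compound at IAPP:compound weight ratios of 1:1 to 1:0.001. Mixtures then mixed with Thioflavin T in phosphate buffer pH 6.8; fluorescence read at 485 nm (ex 444 nm) after blank subtraction.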

The target in another assay is T3, NAC fibrils (Homo sapiens, UniProt P37840).
T3 construct: NAC is a 35-amino acid fragment of α-synuclein; purchased Bachem Inc
Briefly: Thioflavin T fluorometry - disruption of Parkinson's disease NAC fibrils. The following applies: 3 days; for % Inhibition NAC (result ± S.D.) / inhibition: 25 μM pre-fibrillized NAC, 37° C.; for disruption/disassembly of pre-formed NAC fibrils (in words): all concentrations tested (ratios 1:1 to 1:0.001); for inhibition: read-out: % Inhibition NAC (result ± S.D.). Here is the method:
In this assay, Thioflavin T binds specifically to NAC fibrils, and this binding produces a fluorescence enhancement at 485 nm that is directly proportional to the amount of NAC fibrils present. The higher the fluorescence, the greater the amount of NAC fibrils present (Naki et al, Lab. Invest. 65:104-110, 1991; Levine III, Protein Sci. 2:404-410, 1993; Amyloid: Int. J. Exp. Clin. Invest. 2:1-6, 1995).
In this study, 25 μM of pre-fibrillized NAC (Bachem Inc) was incubated at 37° C. for 3 days either alone or in the presence of dihydroxy synthetic analog compounds #1, 3, 23, 26, 52, 63, 66, 67, or EDTA (at NAC:test compound weight ratios of 1:1, 1:0.1, 1:0.01 or 1:0.001). Following 3-days of co-incubation, 50 βl of each incubation mixture was transferred into a 96-well microtiter plate containing 150 μl of distilled water and 50 μl of a Thioflavin T solution (i.e. 500 mM Thioflavin T in 250 mM phosphate buffer, pH 6.8). The fluorescence was read at 485 nm (444 nm excitation wavelength) using an ELISA plate fluorometer after subtraction with buffer alone or compound alone, as blank.

Where [3] appears, read: IAPP:test compound wt/wt ratio 1:0.001.
Where [4] appears, read: IAPP:test compound wt/wt ratio 1:0.01.
Where [5] appears, read: IAPP:test compound wt/wt ratio 1:0.1.
Setting [6] is: IAPP:test compound wt/wt ratio 1:1.
Where [7] appears, read: Aβ:test compound wt/wt ratio 1:0.001.
Setting [8] is: Aβ:test compound wt/wt ratio 1:0.01.
Setting [9] is: Aβ:test compound wt/wt ratio 1:0.1.
Where [10] appears, read: Aβ:test compound wt/wt ratio 1:1.
Where [11] appears, read: NAC:test compound wt/wt ratio 1:0.001.
Setting [12] is: NAC:test compound wt/wt ratio 1:0.01.
Setting [13] is: NAC:test compound wt/wt ratio 1:0.1.
The mark [14] stands for this setting: NAC:test compound wt/wt ratio 1:1.

Read-outs that look alike come from different tables or passages of the source.

Experimental findings from patent publication US20070276034A1, “Compounds, compositions and methods for the treatment of synucleinopathies” (priority 2002, published 2007) are described below.

T2 sequence (P05067 672-713): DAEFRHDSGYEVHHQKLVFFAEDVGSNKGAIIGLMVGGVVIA

A word on the inhibition: it is the percentage by which the read-out fell short of the control. Turning to `O=C(Nc1ccc(O)c(O)c1)c1ccc(O)c(O)c1` [Compound 51, 3,4-dihydroxybenzoic acid 3,4-dihydroxyanilide], the “% Inhibition IAPP (result ± S.D.), Congo red binding” value is 1.6 ± 1.01% at IAPP fibrils [1] (setting [3]), 3.6 ± 2.59% at IAPP fibrils [1] (setting [4]), 27.5 ± 3.49% at IAPP fibrils [1] (setting [5]) and 55.6 ± 1.48% at IAPP fibrils [1] (setting [6]). The inhibition on Aβ 1-42 fibrils (setting [7]) amounted to 29 ± 25.2%; at Aβ 1-42 fibrils (setting [8]), 55.3 ± 5.23%; at Aβ 1-42 fibrils (setting [9]), 94.9 ± 0.24%; at Aβ 1-42 fibrils (setting [10]), 99.4 ± 0.05%; at IAPP fibrils [2] (setting [3]), 11.8 ± 6.45%; on IAPP fibrils [2] (setting [4]), 56.6 ± 1.69%. Also, the values for the inhibition at IAPP fibrils [2] (setting [5]) and at IAPP fibrils [2] (setting [6]) were 96.6 ± 1% and 99.9 ± 0.11%, respectively.

As for `O=C(Nc1ccc(O)c(O)c1)Nc1ccc(O)c(O)c1` [Compound 76, 1,3-bis(3,4-dihydroxyphenyl)urea], the “% Inhibition IAPP (result ± S.D.), Congo red binding” value came out at 3.4 ± 1.07% on IAPP fibrils [1] (setting [3]), 14.2 ± 2.25% on IAPP fibrils [1] (setting [4]), 16.5 ± 2.60% at IAPP fibrils [1] (setting [5]) and 53.9 ± 5.44% on IAPP fibrils [1] (setting [6]). For the same molecule, the inhibition on Aβ 1-42 fibrils (setting [7]) is 12.2 ± 5.98%; on Aβ 1-42 fibrils (setting [8]), 40.9 ± 3.76%; at Aβ 1-42 fibrils (setting [9]), 86.5 ± 1.18%; on Aβ 1-42 fibrils (setting [10]) it was 99.3 ± 1.35%; at IAPP fibrils [2] (setting [3]) it was 9 ± 0.32%; on IAPP fibrils [2] (setting [4]) it was 41.5 ± 6.67%. Also, the figures for the inhibition on IAPP fibrils [2] (setting [5]) and at IAPP fibrils [2] (setting [6]) were 87.5 ± 1.89% and 99.6 ± 1.01%, respectively.

In the case of `Oc1ccc(Cc2ccc(O)c(O)c2)cc1O` [Compound 3, 3,4,3′,4′-tetrahydroxydiphenylmethane], the “% Inhibition NAC (result ± S.D.)” value was 67.3 ± 6.37% on NAC fibrils (setting [11]), 93.9±0.77% at NAC fibrils (setting [12]), 91.0±1.99% on NAC fibrils (setting [13]) and 98.0 ± 1.78% at NAC fibrils (setting [14]). Further, on NAC fibrils, the “disruption/disassembly of pre-formed NAC fibrils (in words)” value (from here on “disruption/disassembly”) is recorded as “dose-dependent disruption/disassembly”. Besides, the “% Inhibition IAPP (result ± S.D.), Congo red binding” value turned out to be 11.1 ± 5.26% at IAPP fibrils [1] (setting [3]), 16.3 ± 1.13% on IAPP fibrils [1] (setting [4]), 37.9±3.10% on IAPP fibrils [1] (setting [5]) and 55.5±2.68% on IAPP fibrils [1] (setting [6]). The “% Inhibition Aβ (result ± S.D.)” value at Aβ 1-42 fibrils (setting [7]) amounted to 5.5 ± 1.99%; at Aβ 1-42 fibrils (setting [8]), 53.1 ± 1.67%; on Aβ 1-42 fibrils (setting [9]), 57.8±6.36%; at Aβ 1-42 fibrils (setting [10]) it was 99.5 ± 0.10%. Moreover, the “% Inhibition IAPP (result ± S.D.)” value on IAPP fibrils [2] (setting [3]) amounted to 30.7 ± 6.71%; at IAPP fibrils [2] (setting [4]), 79.9±1.47%; at IAPP fibrils [2] (setting [5]), 97.7±0.19%; on IAPP fibrils [2] (setting [6]), 100 ± 0.20%.

For the molecule `O=C(CCC(=O)NCc1ccc(O)c(O)c1)NCc1ccc(O)c(O)c1` [Compound 67, succinic acid bis(3,4-dihydroxybenzylamide)], the inhibition turned out to be 11.9 ± 16% at NAC fibrils (setting [11]); 30.6 ± 5.75% on NAC fibrils (setting [12]); 50 ± 7.03% on NAC fibrils (setting [13]); 97.4 ± 1.19% at NAC fibrils (setting [14]); 13.7 ± 6.05% at Aβ 1-42 fibrils (setting [7]); 34 ± 14.1% at Aβ 1-42 fibrils (setting [8]). Besides, the inhibition at Aβ 1-42 fibrils (setting [9]) came to 50.9 ± 8.32%; on Aβ 1-42 fibrils (setting [10]) it was 98.3 ± 2.19%; at IAPP fibrils [2] (setting [3]) it was 16.1 ± 12.4%; at IAPP fibrils [2] (setting [4]) it was 34.8 ± 1.87%; at IAPP fibrils [2] (setting [5]), 81.4 ± 6.96%; at IAPP fibrils [2] (setting [6]) it was 98.6 ± 0.22%. For the same molecule, the “disruption/disassembly” value at NAC fibrils was “dose-dependent disruption/disassembly”. Also, the “% Inhibition IAPP (result ± S.D.), Congo red binding” value is recorded as 0.0 ± 3.45% at IAPP fibrils [1] (setting [3]), 10.6 ± 1.29% on IAPP fibrils [1] (setting [4]), 5.5 ± 2.52% on IAPP fibrils [1] (setting [5]) and 26.3 ± 2.76% at IAPP fibrils [1] (setting [6]).

Turning to `O=C(NCc1ccc(O)c(O)c1)C(=Cc1ccc(O)c(O)c1)NC(=O)c1ccc(O)c(O)c1` [Compound 21, α-(3,4-dihydroxybenzamido)-3,4-dihydroxycinnamic acid 3,4-dihydroxybenzyl amide], the “% Inhibition IAPP (result ± S.D.), Congo red binding” value is 0.0 ± 2.10% on IAPP fibrils [1] (setting [3]), 5.1 ± 4.53% on IAPP fibrils [1] (setting [4]), 10.4 ± 3.53% at IAPP fibrils [1] (setting [5]) and 35.9 ± 0.21% at IAPP fibrils [1] (setting [6]). The inhibition at Aβ 1-42 fibrils (setting [7]) came out at 8.9 ± 2.13%; at Aβ 1-42 fibrils (setting [8]) it was 48.2 ± 8.29%; on Aβ 1-42 fibrils (setting [9]), 81 ± 1.31%; at Aβ 1-42 fibrils (setting [10]), 98.6 ± 0.54%; on IAPP fibrils [2] (setting [3]) it was 5.4 ± 15.4%; on IAPP fibrils [2] (setting [4]), 25.8 ± 3.61%. In addition, the inhibition on IAPP fibrils [2] (setting [5]) is 85.4 ± 0.86%; on IAPP fibrils [2] (setting [6]), 98.5 ± 0.06%.

In the case of `O=C(Nc1ccc(O)c(O)c1)C(=O)Nc1ccc(O)c(O)c1` [Compound 63, oxalic acid bis(3,4-dihydroxyanilide)], the inhibition on NAC fibrils (setting [11]) was 17.3 ± 12.6%; at NAC fibrils (setting [12]), 33 ± 1.69%; on NAC fibrils (setting [14]) it was 45.6 ± 31%; on Aβ 1-42 fibrils (setting [7]), 1.6 ± 9.47%; on Aβ 1-42 fibrils (setting [8]) it was 57.5 ± 10.6%; at Aβ 1-42 fibrils (setting [9]), 23.6 ± 25.8%. Moreover, the inhibition on Aβ 1-42 fibrils (setting [10]) came to 85.3 ± 0.91%; on IAPP fibrils [2] (setting [3]) it was 19 ± 0.3%; at IAPP fibrils [2] (setting [4]), 56.2 ± 8.77%; on IAPP fibrils [2] (setting [5]), 84.2 ± 1.16%; on IAPP fibrils [2] (setting [6]), 94.9 ± 0.65%. In addition, the “disruption/disassembly” value on NAC fibrils was “dose-dependent disruption/disassembly”. Also, the “% Inhibition IAPP (result ± S.D.), Congo red binding” value on IAPP fibrils [1] (setting [3]) is 0.0 ± 2.25%; on IAPP fibrils [1] (setting [4]), 11.7 ± 2.26%; at IAPP fibrils [1] (setting [5]) it was 4.5 ± 1.62%; at IAPP fibrils [1] (setting [6]) it was 15.4 ± 1.34%.
